Legend:
brain tissue = assay: Cytokine and chemokine levels in mice brain at 21 days after CLP (Luminex); format: in vivo, mouse; settings: CLP vs control × MnTBAP vs placebo
Procedure: (§1) We used peritonitis induced by CLP as a model of sepsis (Rittirsch et al., 2009). Briefly, animals were anesthetized with ketamine (Imalgene® 1000 100 mg/kg, Merial, France) and Xylazine (Rompun® 2% 20 mg/kg, Bayer, Germany) prior to surgery. After laparotomy, caecum was ligatured at the distal third with a 4.0 suture and the distal part was perforated twice with a 21 Gauge needle.
(§2) MnTBAP is commercially available: it is for example manufactured by Sigma-Aldrich, Calbiochem, etc. For use it is dissolved following the guidance provided by the manufacturer.
Brain: snap frozen brain samples (n=6 per condition and per time point) were thawed, lysed by mechanical agitation (lysing matrix), and supernatant was aliquoted and stored at −80° C. until analysis.
These samples were processed for Luminex® multiple cytokine and chemokine analysis (Bio-Plex® Pro™ Mouse Cytokine Standard 23-flex, Group I and Standard 9-flex, Group II). Fifty microlitres of sample was analyzed on the Bio-flex system (Bio-Rad) in accordance with the manufacturers instructions. Data analyses for all assays were performed using the Bio-flex Manager software. […] Normalization was done by weight of the frozen brain sample.
The data represent the level of protein expression in pg mg^−1 of brain tissue using Luminex®. Control mice were non-operated but anesthetized. Median values of n=5 mice per group are represented. […]

[1] = Liu et al., 2013b; cited from earlier work
Cd11b+ microglial cells = assay: Gene expression of microglial immuno-phenotype markers (RT-qPCR) in Cd11b+ microglial cells sorted from brain at 21 days; format: in vivo, mouse
Procedure: as §1, §2
Brains were collected for cell dissociation and Cdllb-positive cell separation using a magnetic coupled antibody (MACS® Technology), according to the manufacturer's protocol (Miltenyi Biotec, Bergisch Gladbach, Germany) and as previously described (Schang et al., 2014). In brief, mice were intracardially perfused with NaCl 0,9%. The brains are then dissociated using the Neural Tissue Dissociation Kit containing trypsin and the gentleMACS Octo Dissociator with Heaters. From the resulting brain homogenate, cd11 b-positive cells were enriched using the anti-cd11 b MicroBeads. After elution the isolated cells were centrifuged for 5 min at 200G and conserved at −80° C.
Total RNA was isolated from cells using the RNAeasy Micro kit (Qiagen), and reverse-transcribed using Superscript® III Reverse transcriptase (Invitrogen). Real-time quantitative PCR was performed in duplicate for each sample using Power Sybr Green PCR Master Mix (Applied Biosystems) and the rate of dye incorporation was monitored using the StepOne™ Plus RealTime PCR system (Applied Biosystems). Data were analyzed by StepOne Plus RT PCR software v2.1 and Microsoft excel. Amplification specificity was assessed with a melting curve analysis. TBP transcript levels were used for normalisation of each target (=ΔCT). Real-time PCR CT values were analyzed using the 2^−(ΔCt) method to calculate the fold expression (Schmittgen et al., 2008). The data are presented as relative mRNA units with respect to control group (expressed as fold over control value). Primer sequences available upon request.
We have adopted nomenclature consistent with previous work in microglia (Chhor et al., 2013). We distinguished 3 types of phenotypes according to the mRNA expression levels of markers listed in brackets: pro-inflammatory phentoype (Ptgs2, Cd32, Cd86), alternative phenotype (Lgals3, Igf1 and CD206) and immunoregulatory phenotype (II1rn, II4ra, Socs3).
Quantification of pro-inflammatory markers (CD32, CD86 and Ptgs2 mRNA), anti-inflammatory markers (Lgals3, IGF1 and CD206 mRNA) and immuno-regulator markers (IL1-RA, IL4-Rα and SOCS3 mRNA) by RT-qPCR in Cd11b+ microglial cells magnetically sorted from the brain at 21 days. Control mice were non-operated but anesthetized. The data shown represent median values of n=5 mice per group. Two-way analyses of variance (ANOVAs) CLP vs Control×MnTBAP vs Placebo were performed. […] Data are represented as fold changes using the 2-ΔΔCT method.

control and CLP mice = assay: Novel Object Location test (NOL); format: in vivo, mouse; settings: F(1,29)=0.0007, p=0.98; day 20
Procedure: Data shown are mean values (±SD). Gray bars represent MnTBAP-treated mice from either CLP or control groups, and black bars represent placebo-treated mice from either CLP or Control groups. Two-way analyses of variance (ANOVAs) (CLP vs Control×MnTBAP vs Placebo) were performed. When a significant interaction was observed, planned comparisons were performed for the CLP/Placebo group against the three other groups. The significance of the planned comparisons is indicated with asterisks (*p<0.05, **p<0.01, ***p<0.001, ****p<0.0001).
as §2
Twice a week after the CLP, survival mice were gently handled for at least four 5-min sessions to habituate to the experimenter. Then, 20 and 21 days after CLP, mice were submitted to the novel object location (NOL) and novel object recognition (NOR) tests. […]
The familiarization sessions consisted on 10 min of free exploration of two identical objects, placed inside the same open field arena that the mice had visited on the previous day. […] Then, the percentage of exploration of the new object was calculated, reflecting the retention of the familiar object memory at long-term (24 h). […]

O=C(O)c1ccc(/C2=C3\C=CC(=N3)/C(c3ccc(C(=O)O)cc3)=c3/cc/c4[n]3[Mn]([Cl])[n]3c2ccc3/C(c2ccc(C(=O)O)cc2)=C2/C=CC(=N2)\C=4c2ccc(C(=O)O)cc2)cc1 [MnTBAP, Manganese (III) tetrakis (4-benzoic acid)porphyrin chloride]
measured brain tissue cytokines, two-way ANOVA (brain tissue): did not show any CLP vs control×MnTBAP vs placebo interaction, or difference linked to condition or treatment between the groups
BBB penetration [1]: poorly penetrates the BBB
IL1β expression in microglial cells (Cd11b+ microglial cells; CLP-MnTBAP group vs CLP-placebo group, p=0.01, did not differ from Control-placebo): significantly lower
Lgals3 (M2a) gene expression in microglial cells (Cd11b+ microglial cells; CLP-MnTBAP group vs CLP-placebo group, p=0.023, did not differ from Control-placebo): significantly lower
microglial immunophenotype (Cd11b+ microglial cells; MnTBAP alone (control mice)): did not alter
microglial immunoprofile (Cd11b+ microglial cells; septic mice): shifts microglial immunoprofile from a neurotoxic toward a neuroprotective phenotype
Ptgs2 (M1 marker) transcripts in microglial cells (Cd11b+ microglial cells; septic mice, MnTBAP compared to the placebo group, p=0.026, did not differ from Control-placebo): significantly reduced
IL1RA (M2b marker) transcripts in microglial cells (Cd11b+ microglial cells; septic mice, MnTBAP compared to the placebo group, p=0.047, did not differ from Control-placebo): significantly reduced
NOL exploration time, CLP vs control×MnTBAP vs placebo interaction (control and CLP mice): no significant CLP vs control×MnTBAP vs placebo interaction
